Test results as given in article PMC7383607, “Kinetic and structural studies of Trypanosoma and Leishmania phosphofructokinases show evolutionary divergence and identify AMP as a switch regulating glycolysis versus gluconeogenesis” (The Febs Journal, 2020).

Assays:
[1] = biological target: T1, TcPFK (Trypanosoma cruzi phosphofructokinase) (Trypanosoma cruzi, UniProt Q4E657); assay: SPR steady state, His6-PFK captured on Ni-NTA chip; type: binding
T1 construct: gene pfk; recombinant, E. coli, purified; N-terminal His6 tag (given for SPR); glycosomal homotetramer
T1 sequence (Q4E657 1-485): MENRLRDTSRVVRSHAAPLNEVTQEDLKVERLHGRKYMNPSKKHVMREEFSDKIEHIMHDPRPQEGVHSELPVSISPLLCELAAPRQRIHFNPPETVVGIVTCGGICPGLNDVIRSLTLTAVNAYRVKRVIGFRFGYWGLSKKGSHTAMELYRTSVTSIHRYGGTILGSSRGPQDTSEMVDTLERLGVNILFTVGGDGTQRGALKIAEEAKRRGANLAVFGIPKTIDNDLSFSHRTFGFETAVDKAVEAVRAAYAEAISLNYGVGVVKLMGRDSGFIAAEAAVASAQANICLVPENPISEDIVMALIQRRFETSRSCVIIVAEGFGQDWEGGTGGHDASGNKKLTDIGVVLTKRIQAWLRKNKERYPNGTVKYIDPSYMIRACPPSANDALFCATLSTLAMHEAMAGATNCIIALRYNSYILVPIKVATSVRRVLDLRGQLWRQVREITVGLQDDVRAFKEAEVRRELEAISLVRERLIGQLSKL
From the text: SPR steady state, His6-PFK captured on Ni-NTA chip on TcPFK (Trypanosoma cruzi phosphofructokinase)

[2] = biological target: T2, LiPFK (Leishmania infantum phosphofructokinase) (Leishmania infantum, UniProt A4I4W5); assay: SPR steady state, His6-PFK captured on Ni-NTA chip; type: binding
T2 construct: gene pfk; recombinant, E. coli, purified; N-terminal His6 tag (given for SPR); glycosomal homotetramer
T2 sequence (A4I4W5 1-486): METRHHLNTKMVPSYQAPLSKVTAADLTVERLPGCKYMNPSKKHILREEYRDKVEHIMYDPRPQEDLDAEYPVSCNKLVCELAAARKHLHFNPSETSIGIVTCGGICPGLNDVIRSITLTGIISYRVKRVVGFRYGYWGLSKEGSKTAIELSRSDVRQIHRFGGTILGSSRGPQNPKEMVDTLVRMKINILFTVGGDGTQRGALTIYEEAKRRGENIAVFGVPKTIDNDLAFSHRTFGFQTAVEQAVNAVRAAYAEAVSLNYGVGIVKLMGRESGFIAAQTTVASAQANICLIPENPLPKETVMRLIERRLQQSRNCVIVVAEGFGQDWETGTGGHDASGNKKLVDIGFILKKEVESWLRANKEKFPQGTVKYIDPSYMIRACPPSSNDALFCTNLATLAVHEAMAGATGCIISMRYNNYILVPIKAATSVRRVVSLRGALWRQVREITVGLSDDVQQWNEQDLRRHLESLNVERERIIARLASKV
From the text: SPR steady state, His6-PFK captured on Ni-NTA chip on LiPFK (Leishmania infantum phosphofructokinase)

[3] = biological target: T3, TbPFK (Trypanosoma brucei phosphofructokinase) (Trypanosoma brucei, UniProt O15648); assay: SPR steady state, His6-PFK captured on Ni-NTA chip; type: binding
T3 construct: gene pfk; recombinant, E. coli, purified; N-terminal His6 tag (for SPR and reaction order tests); tetramer of 53-kDa subunits
T3 sequence (O15648 1-487): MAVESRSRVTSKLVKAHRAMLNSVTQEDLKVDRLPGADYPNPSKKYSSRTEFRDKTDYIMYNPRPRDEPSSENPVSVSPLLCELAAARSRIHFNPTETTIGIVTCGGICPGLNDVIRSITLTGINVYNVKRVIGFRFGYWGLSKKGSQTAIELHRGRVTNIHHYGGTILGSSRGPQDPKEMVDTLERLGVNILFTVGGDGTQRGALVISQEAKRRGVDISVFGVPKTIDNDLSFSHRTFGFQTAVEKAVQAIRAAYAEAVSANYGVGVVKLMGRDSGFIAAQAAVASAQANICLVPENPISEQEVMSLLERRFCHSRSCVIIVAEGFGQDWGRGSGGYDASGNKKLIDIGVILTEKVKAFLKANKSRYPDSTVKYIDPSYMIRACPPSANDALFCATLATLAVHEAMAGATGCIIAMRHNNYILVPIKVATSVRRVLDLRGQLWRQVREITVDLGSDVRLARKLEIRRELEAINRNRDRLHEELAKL
From the text: SPR steady state, His6-PFK captured on Ni-NTA chip on TbPFK (Trypanosoma brucei phosphofructokinase)

[4] = substrate: Nc1nc2c(ncn2[C@@H]2O[C@H](COP(=O)(O)OP(=O)(O)OP(=O)(O)O)[C@@H](O)[C@H]2O)c(=O)[nH]1; assay: pyruvate kinase-lactate dehydrogenase coupled assay, A340, sigmoidal fit; type: biochemical, Trypanosoma cruzi; conditions: 3 mM F6P, no AMP, 10 mM MgCl2, 100 mM KCl, pH 7.4, 25 °C
From the text: pyruvate kinase-lactate dehydrogenase coupled assay, A340, sigmoidal fit on TcPFK (Trypanosoma cruzi phosphofructokinase)

[5] = substrate: Nc1nc2c(ncn2[C@@H]2O[C@H](COP(=O)(O)OP(=O)(O)OP(=O)(O)O)[C@@H](O)[C@H]2O)c(=O)[nH]1; assay: as above; type: biochemical, Trypanosoma brucei; conditions: 3 mM F6P, no AMP, 10 mM MgCl2, 100 mM KCl, pH 7.4, 25 °C
From the text: pyruvate kinase-lactate dehydrogenase coupled assay, A340, sigmoidal fit on TbPFK (Trypanosoma brucei phosphofructokinase)

[6] = biological target: the molecule itself; assay: crystal structure; TbPFK at 6 mg/mL in gel filtration buffer with 1 mM F16BP, 1 mM AMP and 500 µM PFK inhibitor, hanging drop, 18 °C, 9.5% PEG 8000, 0.1 M sodium cacodylate pH 7.4; only AMP seen bound; two tetramers in the asymmetric unit

Nc1ncnc2c1ncn2[C@@H]1O[C@H](COP(=O)(O)OP(=O)(O)OP(=O)(O)O)[C@@H](O)[C@H]1O [ATP]
Kd [1]: 35.4 µM
Kd [2]: 16.8 µM
Kd [3]: 15.8 µM

Nc1ncnc2c1ncn2[C@@H]1O[C@H](COP(=O)(O)OP(=O)(O)O)[C@@H](O)[C@H]1O [ADP]
Kd [1]: 730 µM
Kd [2]: 160 µM
Kd [3]: 560 µM

Nc1ncnc2c1ncn2[C@@H]1O[C@H](COP(=O)(O)O)[C@@H](O)[C@H]1O [AMP]
Kd [1]: 1040 µM
Kd [2]: 2300 µM
Kd [3]: 470 µM

B1: TcPFK (Trypanosoma cruzi phosphofructokinase) (Trypanosoma cruzi strain CL Brener) (protein)
chain: T1 sequence (Q4E657 1-485)
notes: recombinant, E. coli, purified; N-terminal His6 tag (given for SPR); glycosomal homotetramer
K0.5 [4]: 195 (14) μM
Vmax [4]: 63 µmol/min/mg
kcat [4]: 58.7 s⁻¹

B2: Trypanosoma brucei phosphofructokinase (enzyme)
chain: T3 sequence (O15648 1-487)
notes: ATP-dependent phosphofructokinase of Trypanosoma brucei; 53-kDa subunit; residues up to 486 are named in the structure; The N-terminal His6 tag is stated for the SPR experiments and 'His-tagged TbPFK' for the kinetics; also called TbPFK; T. brucei PFK
K0.5 [5]: 123 (8) μM
Vmax [5]: 38.3 µmol/min/mg
kcat [5]: 35.6 s⁻¹
stoichiometry N [6]: 4
